Assay results reported in patent US20250340557A1, “PYRIMIDINE DERIVATIVE” (ASKA PHARMACEUTICAL CO., LTD., priority 2022, published 2025).

These compounds were tested against T1, human mPGES-1 (Homo sapiens, UniProt O14684) (assay: Test for mPGES-1 inhibitory activity (microsomal enzyme, PGE2 EIA)). Settings: microsomes from COS-1 cells transfected with human mPGES-1 cDNA; substrate PGH2 1 μM; 4° C., 4 minutes; PGE2 measured by EIA; read-out: h mPGES1 IC50.
T1 construct: made in house; host or cells: COS-1 cells (transient transfection; microsomal fraction used as enzyme)
T1 sequence (O14684 1-152): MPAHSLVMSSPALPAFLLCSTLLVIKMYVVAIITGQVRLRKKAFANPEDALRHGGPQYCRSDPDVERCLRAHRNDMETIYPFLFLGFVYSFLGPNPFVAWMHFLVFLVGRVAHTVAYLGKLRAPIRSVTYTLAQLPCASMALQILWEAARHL
Format: biochemical
Outline: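 Enzyme source was microsomes from COS-1 cells transiently expressing human mPGES-1, in sodium phosphate pH 7.2 with 2.5 mM GSH, 1 mM EDTA and 2% DMSO final. After a 15 min preincubation with compound at 4 °C, 1 μM PGH2 (final) reacted for 4 min at 4 °C.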

Structure (SMILES)	IC50
CCc1nc(-c2c(C(F)(F)F)ccc(CNC(=O)[C@H]3CC[C@H](OCc4ccc(F)cc4F)CC3)c2F)[nH]c(=O)c1F [Example 132, trans-4-[(2,4-difluorobenzyl)oxy]-N-[3-(4-ethyl-5-fluoro-6-oxo-1,6-dihydropyrimidin-2-yl)-2-fluoro-4-(trifluoromethyl)benzyl]cyclohexane-1-carboxamide]	21 nM
CCc1nc(-c2c(C(F)(F)F)ccc(CNC(=O)[C@H]3CC[C@H](OCc4ccc(F)c(F)c4)CC3)c2F)[nH]c(=O)c1F [Example 133, trans-4-[(3,4-difluorobenzyl)oxy]-N-[3-(4-ethyl-5-fluoro-6-oxo-1,6-dihydropyrimidin-2-yl)-2-fluoro-4-(trifluoromethyl)benzyl]cyclohexane-1-carboxamide]	27 nM
O=c1cc(C(F)(F)F)nc(-c2c(C(F)(F)F)ccc(CNC(=O)[C@H]3C[C@H](OCc4ccccc4)C3)c2F)[nH]1 [Example 134, trans-3-(benzyloxy)-N-{2-fluoro-3-[6-oxo-4-(trifluoromethyl)-1,6-dihydropyrimidin-2-yl]-4-(trifluoromethyl)benzyl}cyclobutane-1-carboxamide]	< 10 nM
O=c1cc(C(F)(F)F)nc(-c2c(C(F)(F)F)ccc(CNC(=O)[C@H]3C[C@@H](OCc4ccccc4)C3)c2F)[nH]1 [Example 135, cis-3-(benzyloxy)-N-{2-fluoro-3-[6-oxo-4-(trifluoromethyl)-1,6-dihydropyrimidin-2-yl]-4-(trifluoromethyl)benzyl}cyclobutane-1-carboxamide]	6.4 nM
O=c1cc(C(F)(F)F)nc(-c2c(C(F)(F)F)ccc(CNC(=O)[C@H]3C[C@H](OCc4ccccc4Cl)C3)c2F)[nH]1 [Example 136, trans-3-[(2-chlorobenzyl)oxy]-N-{2-fluoro-3-[6-oxo-4-(trifluoromethyl)-1,6-dihydropyrimidin-2-yl]-4-(trifluoromethyl)benzyl}cyclobutane-1-carboxamide]	2 nM
O=c1cc(C(F)(F)F)nc(-c2c(C(F)(F)F)ccc(CNC(=O)[C@H]3C[C@@H](OCc4ccccc4Cl)C3)c2F)[nH]1 [Example 137, cis-3-[(2-chlorobenzyl)oxy]-N-{2-fluoro-3-[6-oxo-4-(trifluoromethyl)-1,6-dihydropyrimidin-2-yl]-4-(trifluoromethyl)benzyl}cyclobutane-1-carboxamide]	2.9 nM
O=c1cc(C(F)(F)F)nc(-c2c(C(F)(F)F)ccc(CNC(=O)[C@H]3C[C@H](OCc4cccc(Cl)c4)C3)c2F)[nH]1 [Example 138, trans-3-[(3-chlorobenzyl)oxy]-N-{2-fluoro-3-[6-oxo-4-(trifluoromethyl)-1,6-dihydropyrimidin-2-yl]-4-(trifluoromethyl)benzyl}cyclobutane-1-carboxamide]	< 1 nM
O=c1cc(C(F)(F)F)nc(-c2c(C(F)(F)F)ccc(CNC(=O)[C@H]3C[C@H](OCc4ccc(Cl)cc4)C3)c2F)[nH]1 [Example 140, trans-3-[(4-chlorobenzyl)oxy]-N-{2-fluoro-3-[6-oxo-4-(trifluoromethyl)-1,6-dihydropyrimidin-2-yl]-4-(trifluoromethyl)benzyl}cyclobutane-1-carboxamide]	1 nM
O=c1cc(C(F)(F)F)nc(-c2c(C(F)(F)F)ccc(CNC(=O)[C@H]3C[C@@H](OCc4ccc(Cl)cc4)C3)c2F)[nH]1 [Example 141, cis-3-[(4-chlorobenzyl)oxy]-N-{2-fluoro-3-[6-oxo-4-(trifluoromethyl)-1,6-dihydropyrimidin-2-yl]-4-(trifluoromethyl)benzyl}cyclobutane-1-carboxamide]	< 1 nM
O=c1cc(C(F)(F)F)nc(-c2c(C(F)(F)F)ccc(CNC(=O)[C@H]3C[C@H](OCc4ccccc4C(F)(F)F)C3)c2F)[nH]1 [Example 142, trans-N-{2-fluoro-3-[6-oxo-4-(trifluoromethyl)-1,6-dihydropyrimidin-2-yl]-4-(trifluoromethyl)benzyl}-3-{[2-(trifluoromethyl)benzyl]oxy}cyclobutane-1-carboxamide]	< 1 nM
O=c1cc(C(F)(F)F)nc(-c2c(C(F)(F)F)ccc(CNC(=O)[C@H]3C[C@@H](OCc4ccccc4C(F)(F)F)C3)c2F)[nH]1 [Example 143, cis-N-{2-fluoro-3-[6-oxo-4-(trifluoromethyl)-1,6-dihydropyrimidin-2-yl]-4-(trifluoromethyl)benzyl}-3-{[2-(trifluoromethyl)benzyl]oxy}cyclobutane-1-carboxamide]	28 nM
O=c1cc(C(F)(F)F)nc(-c2c(C(F)(F)F)ccc(CNC(=O)[C@H]3C[C@H](OCc4cccc(C(F)(F)F)c4)C3)c2F)[nH]1 [Example 144, trans-N-{2-fluoro-3-[6-oxo-4-(trifluoromethyl)-1,6-dihydropyrimidin-2-yl]-4-(trifluoromethyl)benzyl}-3-{[3-(trifluoromethyl)benzyl]oxy}cyclobutane-1-carboxamide]	< 1 nM

Same assay, conditions: microsomes of COS-1 cells transfected with human mPGES-1 cDNA; PGH2 1 μM; 4° C., 4 minutes; PGE2 by EIA; read-out: h mPGES1 IC50

Structure (SMILES)	IC50
O=c1cc(C(F)(F)F)nc(-c2c(C(F)(F)F)ccc(CNC(=O)[C@H]3C[C@@H](OCc4cccc(C(F)(F)F)c4)C3)c2F)[nH]1 [Example 145, cis-N-{2-fluoro-3-[6-oxo-4-(trifluoromethyl)-1,6-dihydropyrimidin-2-yl]-4-(trifluoromethyl)benzyl}-3-{[3-(trifluoromethyl)benzyl]oxy}cyclobutane-1-carboxamide]	98 nM
O=c1cc(C(F)(F)F)nc(-c2c(C(F)(F)F)ccc(CNC(=O)[C@H]3C[C@H](OCc4ccc(C(F)(F)F)cc4)C3)c2F)[nH]1 [Example 146, trans-N-{2-fluoro-3-[6-oxo-4-(trifluoromethyl)-1,6-dihydropyrimidin-2-yl]-4-(trifluoromethyl)benzyl}-3-{[4-(trifluoromethyl)benzyl]oxy}cyclobutane-1-carboxamide]	2.1 nM
O=c1cc(C(F)(F)F)nc(-c2c(C(F)(F)F)ccc(CNC(=O)[C@H]3C[C@@H](OCc4ccc(C(F)(F)F)cc4)C3)c2F)[nH]1 [Example 147, cis-N-{2-fluoro-3-[6-oxo-4-(trifluoromethyl)-1,6-dihydropyrimidin-2-yl]-4-(trifluoromethyl)benzyl}-3-{[4-(trifluoromethyl)benzyl]oxy}cyclobutane-1-carboxamide]	< 1 nM
O=c1cc(C(F)(F)F)nc(-c2c(C(F)(F)F)ccc(CNC(=O)[C@H]3C[C@H](OCc4ccc(F)cc4F)C3)c2F)[nH]1 [Example 148, trans-3-[(2,4-difluorobenzyl)oxy]-N-{2-fluoro-3-[6-oxo-4-(trifluoromethyl)-1,6-dihydropyrimidin-2-yl]-4-(trifluoromethyl)benzyl}cyclobutane-1-carboxamide]	< 1 nM
O=c1cc(C(F)(F)F)nc(-c2c(C(F)(F)F)ccc(CNC(=O)[C@H]3C[C@H](OCc4ccc(Cl)cc4F)C3)c2F)[nH]1 [Example 149, trans-3-[(4-chloro-2-fluorobenzyl)oxy]-N-{2-fluoro-3-[6-oxo-4-(trifluoromethyl)-1,6-dihydropyrimidin-2-yl]-4-(trifluoromethyl)benzyl}cyclobutane-1-carboxamide]	< 1 nM
O=c1cc(C(F)(F)F)nc(-c2c(C(F)(F)F)ccc(CNC(=O)[C@H]3C[C@H](OCc4ccc(F)c(F)c4)C3)c2F)[nH]1 [Example 150, trans-3-[(3,4-difluorobenzyl)oxy]-N-{2-fluoro-3-[6-oxo-4-(trifluoromethyl)-1,6-dihydropyrimidin-2-yl]-4-(trifluoromethyl)benzyl}cyclobutane-1-carboxamide]	< 1 nM
O=c1cc(C(F)(F)F)nc(-c2c(C(F)(F)F)ccc(CNC(=O)[C@H]3C[C@H](OCc4cc(F)cc(F)c4)C3)c2F)[nH]1 [Example 151, trans-3-[(3,5-difluorobenzyl)oxy]-N-{2-fluoro-3-[6-oxo-4-(trifluoromethyl)-1,6-dihydropyrimidin-2-yl]-4-(trifluoromethyl)benzyl}cyclobutane-1-carboxamide]	< 1 nM
O=c1cc(C(F)(F)F)nc(-c2c(C(F)(F)F)ccc(CNC(=O)[C@H]3C[C@H](OCc4cccc(F)c4)C3)c2F)[nH]1 [Example 152, trans-N-{2-fluoro-3-[6-oxo-4-(trifluoromethyl)-1,6-dihydropyrimidin-2-yl]-4-(trifluoromethyl)benzyl}-3-[(3-fluorobenzyl)oxy]cyclobutane-1-carboxamide]	< 1 nM
O=c1cc(C(F)(F)F)nc(-c2c(C(F)(F)F)ccc(CNC(=O)[C@H]3C[C@H](OCc4cccc(F)c4F)C3)c2F)[nH]1 [Example 153, trans-3-[(2,3-difluorobenzyl)oxy]-N-{2-fluoro-3-[6-oxo-4-(trifluoromethyl)-1,6-dihydropyrimidin-2-yl]-4-(trifluoromethyl)benzyl}cyclobutane-1-carboxamide]	< 1 nM
O=c1cc(C(F)(F)F)nc(-c2c(C(F)(F)F)ccc(CNC(=O)[C@H]3C[C@H](OCc4ccc(F)cc4Cl)C3)c2F)[nH]1 [Example 154, trans-3-[(2-chloro-4-fluorobenzyl)oxy]-N-{2-fluoro-3-[6-oxo-4-(trifluoromethyl)-1,6-dihydropyrimidin-2-yl]-4-(trifluoromethyl)benzyl}cyclobutane-1-carboxamide]	< 1 nM
O=c1cc(C(F)(F)F)nc(-c2c(C(F)(F)F)ccc(CNC(=O)[C@H]3C[C@H](OCc4cccc(Cl)c4F)C3)c2F)[nH]1 [Example 155, trans-3-[(3-chloro-2-fluorobenzyl)oxy]-N-{2-fluoro-3-[6-oxo-4-(trifluoromethyl)-1,6-dihydropyrimidin-2-yl]-4-(trifluoromethyl)benzyl}cyclobutane-1-carboxamide]	< 1 nM
